In patent publication US20240239753A1, “METHOD FOR CRYSTALLIZATION OF AROMATIC AMINO ACIDS, ENABLING SUSTAINABLE CYCLE OF AMMONIA” (CJ CheilJedang Corporation, priority 2021, published 2024):

Assay: Analysis of solubility of L-tryptophan depending on pH of solution
Assay type: physicochemical
Conditions: distilled water/ammonia water mixtures, 30° C., stirring 12 hours or more, supernatant by HPLC; pH of the solution 10 or more (FIG. 2)
Protocol: Measurement of solubility of L-tryptophan amino acids was performed in a 1 L jacket reactor made of glass. After mixing distilled water and ammonia water in the 1 L jacket reactor at various ratios, an excess of L-tryptophan crystals was added and they were stirred, thereby preparing a reaction solution comprising L-tryptophan crystals. After that, while maintaining the internal temperature of the reactor at 30° C. constantly using freezing/heating circulation apparatus (model F35, Julabo, Germany), these conditions were applied with stirring for 12 hours or more. Then, when the stirring was stopped and all L-tryptophan crystals were sunk, a part of clear supernatant was transferred to a syringe sampler equipped with a 0.45 μm syringe filter. At this time, the pH of the corresponding solution was measured suing a pH measuring instrument (model S220, Mettler Toledo, US). The concentration of the corresponding sample was measured using HPLC, after diluting with tertiary distilled water using a volumetric flask. The concentration of the supernatant sample was assumed with the solubility, and the change in solubility of L-tryptophan depending on pH of solution was shown in FIG. 2. In other words, the pH of the solution could be confirmed that the solubility of L-tryptophan increased from the time when the pH of the solution was to be 10 or more.

Structure (SMILES): N[C@@H](Cc1c[nH]c2ccccc12)C(=O)O [L-tryptophan]
- change in solubility of L-tryptophan depending on pH of solution: increased
